23 compounds from PubChem BioAssay AID330 (DTP/NCI, 2004) can be followed below.

Several values for one entry are separate records, joined by “and”; a condition that tells them apart may be missing. Equal values may be shown once. Inconclusive results and toxic doses are left out.

The test concerns P388 leukemia ip, CD2F1 mice, survival T/C. Nature of the test: NCI In Vivo Anticancer Drug Screen. Data for tumor model P388 Leukemia (intraperitoneal) in CD2F1 (CDF1) mice. The conditions noted are these: endpoint: median survival time, higher = longer survival. The method, boiled down: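 Mice carrying the transplanted tumor received test compound or vehicle. Survival was recorded in each group, and the value is the treated-group measurement divided by that of the vehicle-treated control group.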

Where [1] appears, read: dose: 50.0 mg/kg/injection, schedule: Q01DX005 (ip), vehicle: Klucel (hydroxypropylcellulose) (HPC).
Setting [2] is: dose: 100.0 mg/kg/injection, schedule: Q01DX005 (ip), vehicle: Klucel (hydroxypropylcellulose) (HPC).
Where [3] appears, read: dose: 200.0 mg/kg/injection, schedule: Q01DX005 (ip), vehicle: Klucel (hydroxypropylcellulose) (HPC).
[4] abbreviates: dose: 50.0 mg/kg/injection, schedule: Q01DX009 (ip), vehicle: saline.
Where [5] appears, read: dose: 100.0 mg/kg/injection, schedule: Q01DX009 (ip), vehicle: saline.
Setting [6] is: dose: 12.5 mg/kg/injection, schedule: Q01DX009 (ip), vehicle: saline with Tween-80.
Setting [7] is: dose: 50.0 mg/kg/injection, schedule: Q01DX009 (ip), vehicle: saline with Tween-80.
Setting [8] is: dose: 100.0 mg/kg/injection, schedule: Q01DX009 (ip), vehicle: saline with Tween-80.
Where [9] appears, read: dose: 100.0 mg/kg/injection, schedule: Q01DX009 (ip), vehicle: saline sonified.
The mark [10] stands for this setting: dose: 200.0 mg/kg/injection, schedule: Q01DX009 (ip), vehicle: saline sonified.
Setting [11] is: dose: 50.0 mg/kg/injection, schedule: Q01DX005 (ip), vehicle: saline with Tween-80.

Take `COC1=CCC2C(=O)C=CC(=O)C2C1` (centres undefined): the T/C by setting is: (dose: 12.5 mg/kg/injection, schedule: Q01DX005 (ip), vehicle: Klucel (hydroxypropylcellulose) (HPC)) 101 % of control; (dose: 25.0 mg/kg/injection, schedule: Q01DX005 (ip), vehicle: Klucel (hydroxypropylcellulose) (HPC)) 93 % of control; under setting [1], 101 % of control; under setting [2], 96 % of control; under setting [3], 101 % of control.

Regarding `C/C=C/c1cnc2nc(N)nc(N)c2n1`, the T/C is 99 % of control (dose: 100.0 mg/kg/injection, schedule: Q04DX002 (ip), vehicle: saline with Tween-80); 104 % of control (dose: 200.0 mg/kg/injection, schedule: Q04DX002 (ip), vehicle: saline with Tween-80); 107 % of control (dose: 400.0 mg/kg/injection, schedule: Q04DX002 (ip), vehicle: saline with Tween-80).

In the case of `COC(=O)Nc1ccc(C(=O)c2ccccc2)cc1`, the T/C runs as follows: under setting [4], 98 % of control; under setting [5], 99 % of control; (dose: 200.0 mg/kg/injection, schedule: Q01DX009 (ip), vehicle: saline) 93 % of control.

Consider `O=C1c2ccccc2C(=O)C1c1ccc2c(ccc3ccccc32)n1`, for which the T/C under setting [1] was 98 % of control, the T/C under setting [2] is 88 % of control and the T/C under setting [3] was 96 % of control.

Turning to `COc1ccc2oc(=O)n(N=C(C)C)c(=O)c2c1`, the T/C reads like this: (dose: 60.0 mg/kg/injection, schedule: Q01DX005 (ip), vehicle: Klucel (hydroxypropylcellulose) (HPC)) 97 % of control; (dose: 120.0 mg/kg/injection, schedule: Q01DX005 (ip), vehicle: Klucel (hydroxypropylcellulose) (HPC)) 95 % of control; (dose: 240.0 mg/kg/injection, schedule: Q01DX005 (ip), vehicle: Klucel (hydroxypropylcellulose) (HPC)) 94 % of control.

For the compound `CN(C)CCNC1=CC(=O)c2ccccc2C1=O`, the T/C was 94 % of control (dose: 12.5 mg/kg/injection, schedule: Q01DX009 (ip), vehicle: distilled water + Tween-80); 101 % of control (dose: 25.0 mg/kg/injection, schedule: Q01DX009 (ip), vehicle: distilled water + Tween-80); 100 % of control (dose: 50.0 mg/kg/injection, schedule: Q01DX009 (ip), vehicle: distilled water + Tween-80); 97 % of control (dose: 100.0 mg/kg/injection, schedule: Q01DX009 (ip), vehicle: distilled water + Tween-80).

Turning to `CSCCCCN=[N+]=[N-]`, the T/C is, setting by setting: (dose: 60.0 mg/kg/injection, schedule: Q01DX005 (ip), vehicle: saline) 104 % of control; (dose: 120.0 mg/kg/injection, schedule: Q01DX005 (ip), vehicle: saline) 112 % of control.

Regarding `O=C(O)C1CSC(c2ccccc2)N1` (centres undefined), the T/C is 100 % of control and 101 % of control under setting [6]; 102 % of control and 103 % of control (dose: 25.0 mg/kg/injection, schedule: Q01DX009 (ip), vehicle: saline with Tween-80); 100 % of control under setting [7]; 100 % of control under setting [8].

In the case of `O=C1OC(OC2OC(=O)C(Cl)=C2Cl)C(Cl)=C1Cl` (centres undefined), the T/C by setting is: (dose: 12.5 mg/kg/injection, schedule: Q01DX005 (ip), vehicle: saline with Tween-80) 104 % of control and 109 % of control; (dose: 25.0 mg/kg/injection, schedule: Q01DX005 (ip), vehicle: saline with Tween-80) 116 % of control and 117 % of control.

As to `CC(CO)CCC(O)C(C)(O)C1CCC2(O)C3=CC(=O)C4CC(O)C(O)CC4(C)C3CCC12C` (centres undefined), the T/C reads like this: (dose: 1.25 mg/kg/injection, schedule: Q01DX005 (ip), vehicle: Klucel (hydroxypropylcellulose) (HPC)) 102 % of control; (dose: 2.5 mg/kg/injection, schedule: Q01DX005 (ip), vehicle: Klucel (hydroxypropylcellulose) (HPC)) 97 % of control; (dose: 5.0 mg/kg/injection, schedule: Q01DX005 (ip), vehicle: Klucel (hydroxypropylcellulose) (HPC)) 98 % of control; (dose: 10.0 mg/kg/injection, schedule: Q01DX005 (ip), vehicle: Klucel (hydroxypropylcellulose) (HPC)) 100 % of control; (dose: 20.0 mg/kg/injection, schedule: Q01DX005 (ip), vehicle: Klucel (hydroxypropylcellulose) (HPC)) 100 % of control; (dose: 40.0 mg/kg/injection, schedule: Q01DX005 (ip), vehicle: Klucel (hydroxypropylcellulose) (HPC)) 100 % of control. In addition, the T/C (dose: 80.0 mg/kg/injection, schedule: Q01DX005 (ip), vehicle: Klucel (hydroxypropylcellulose) (HPC)) was 98 % of control.

In the case of `O=C1C(Cl)=C(Cl)C(=O)C2=C1C1c3ccccc3C2c2ccccc21`, the T/C by setting is: under setting [9], 105 % of control; under setting [10], 110 % of control; (dose: 400.0 mg/kg/injection, schedule: Q01DX009 (ip), vehicle: saline sonified) 100 % of control.

Consider `CC(=O)[C@]1(O)Cc2c(O)c3c(c(O)c2[C@@H](OC2CC(N)C(O)C(C)O2)C1)C(=O)c1c(OCC(C)C)cccc1C3=O` (some centres undefined), for which the T/C reads like this: (dose: 3.13 mg/kg/injection, schedule: Q04DX003 (ip), vehicle: water) 107 % of control and 110 % of control; (dose: 6.25 mg/kg/injection, schedule: Q04DX003 (ip), vehicle: water) 105 % of control and 119 % of control; (dose: 12.5 mg/kg/injection, schedule: Q04DX003 (ip), vehicle: water) 101 % of control; (dose: 25.0 mg/kg/injection, schedule: Q04DX003 (ip), vehicle: water) 121 % of control; (dose: 50.0 mg/kg/injection, schedule: Q04DX003 (ip), vehicle: water) 101 % of control and 89 % of control.

On to `Cc1ccc(NC(=O)Cc2nc3ccccc3s2)c(C)c1`, for which the T/C runs as follows: (dose: 60.0 mg/kg/injection, schedule: Q01DX005 (ip), vehicle: saline with Tween-80) 103 % of control; (dose: 120.0 mg/kg/injection, schedule: Q01DX005 (ip), vehicle: saline with Tween-80) 110 % of control.

Consider `CCOC(=O)c1ccc(NN=NC)cc1`, for which the T/C reads like this: under setting [6], 108 % of control and 113 % of control; under setting [7], 154 % of control and 173 % of control; under setting [8], 108 % of control and 91 % of control.

Turning to `CCn1cnc(CC(NC(=O)C(F)(F)F)C(=O)O)c1` (centres undefined), the T/C by setting is: (dose: 50.0 mg/kg/injection, schedule: Q01DX009 (ip), vehicle: Klucel (hydroxypropylcellulose) (HPC)) 94 % of control; (dose: 100.0 mg/kg/injection, schedule: Q01DX009 (ip), vehicle: Klucel (hydroxypropylcellulose) (HPC)) 100 % of control; (dose: 200.0 mg/kg/injection, schedule: Q01DX009 (ip), vehicle: Klucel (hydroxypropylcellulose) (HPC)) 98 % of control.

`CCN(CC)c1ccc2cc(S(=O)(=O)c3ccc(C)cc3)c(=O)oc2c1`: the T/C under setting [11] is 96 % of control.

For `Nc1cccc(CCCCc2ccc(Cl)c(S(=O)(=O)F)c2)c1`, the T/C is 86 % of control (dose: 50.0 mg/kg/injection, schedule: Q01DX009 (ip), vehicle: saline sonified); 86 % of control under setting [9]; 95 % of control under setting [10].

In the case of `Cc1ccc(NCCN(C)C)c2c(=O)c3c(O)cccc3sc12`, the T/C (dose: 50.0 mg/kg/injection, schedule: Q01DX009 (ip), vehicle: suspension in saline) is 166 % of control.

Regarding `CN(/N=C\c1cc(Cl)cc(Cl)c1O)c1ccccc1[N+](=O)[O-]`, the T/C was 101 % of control under setting [1], 95 % of control under setting [2] and 101 % of control under setting [3].

For `O=C(Nc1ccc(N=Nc2ccccc2)cc1)SCCO`, the T/C under setting [11] is 102 % of control and the T/C (dose: 100.0 mg/kg/injection, schedule: Q01DX005 (ip), vehicle: saline with Tween-80) was 108 % of control.

`N#CC1CCCC[N-]1.[NH-]CC[N-]CC[NH-].[Pt+4]` (centres undefined): the T/C reads like this: (dose: 6.25 mg/kg/injection, schedule: Q01DX009 (ip), vehicle: saline) 93 % of control; (dose: 12.5 mg/kg/injection, schedule: Q01DX009 (ip), vehicle: saline) 97 % of control; (dose: 25.0 mg/kg/injection, schedule: Q01DX009 (ip), vehicle: saline) 100 % of control; under setting [4], 97 % of control; under setting [5], 89 % of control.

With `CS(=O)(=O)N(CC(=O)O)Cc1ccc(Cl)c(Cl)c1`, the T/C runs as follows: (dose: 25.0 mg/kg/injection, schedule: Q04DX003 (ip), vehicle: Klucel + Tween-80) 92 % of control; (dose: 50.0 mg/kg/injection, schedule: Q04DX003 (ip), vehicle: Klucel + Tween-80) 100 % of control; (dose: 100.0 mg/kg/injection, schedule: Q04DX003 (ip), vehicle: Klucel + Tween-80) 98 % of control; (dose: 200.0 mg/kg/injection, schedule: Q04DX003 (ip), vehicle: Klucel + Tween-80) 91 % of control.

`CCOC(=O)c1ccc(NC)cc1`: the T/C under setting [7] was 105 % of control; the T/C under setting [8] is 102 % of control; the T/C (dose: 200.0 mg/kg/injection, schedule: Q01DX009 (ip), vehicle: saline with Tween-80) is 118 % of control.
